From US8569580B2, “Transformed plants or algae with highly expressed chloroplast protein BPG2” (Riken, priority 2010, dated 2013)

Legend:
[1] = tested on: Arabidopsis thaliana seedlings; assay: Measurement of chlorophyll a and b in seedlings; format: in vivo; conditions: 4 days, long days
Experimental: Arabidopsis thaliana Columbia-0 (Col-0) was used as the wild type. For cotyledon analysis, plants were germinated and grown on ½ MS medium (Duchefa) containing 1.5% sucrose and 0.9% phytoagar (Duchefa), with or without Brz. Germinated plants were transferred to soil. Conditions in the growth chamber were 16 h light (100 μE m^−2 sec^−1 white light)/8 h dark at 22° C. […] Plants were homogenized in 80% (v/v) acetone. The chlorophyll content of the centrifuged supernatants was determined at 645 nm and 663 nm. Chlorophyll a and b content were determined according to Arnon (1949): Chlorophyll a (μg/mg fresh weight)=(12.7A663−[…])/mg fresh weight Chlorophyll b (μg/mg fresh weight)=(22.9A645−4.67A663)/mg fresh weight

[2] = tested on: Arabidopsis thaliana seedlings; assay: Immunoblot analysis of chloroplast proteins; format: in vivo; conditions: 1 μM Brz
Experimental: of wild type, bpg2-1, and bpg2-2 were ground in liquid nitrogen and extracted by boiling with two volumes/fresh weight of 1× Laemmli buffer [50 mM Tris-HCl (pH 6.8), 100 mM DTT, 2% (w/v) SDS, 0.1% (w/v) bromophenol blue, and 10% (w/v) glycerol] for immunoblot analysis of Rubisco LSU, SSU, and LHCP. Total proteins for immunoblot analysis of D1 protein were prepared as described (Nakajima et al., 1996). Proteins were separated by SDS-PAGE (12.5% acrylamide separating gel). After electrophoresis, the proteins were stained with Coomassie Brilliant Blue or electrophoretically transferred to Hybond ECL nitrocellulose membrane (Amersham). After blocking overnight in TBS (20 mM Tris, 0.137 M NaCl, pH7.4, 0.05% polyoxyethlene sorbital monolaurate) buffer containing 5% non-fat milk (Morinagamilk) at room temperature, the membrane was incubated in TBS buffer containing non-fat milk with polyclonal antibody for 1 h at room temperature. After washing in TBS buffer, the blots were incubated with horseradish peroxidase-conjugated secondary antibody (Promega for Rubisco L/S and LHCP, and Cosmo Bio for D1) for 1 h at room temperature, and the complexes were made visible with ECL Immoblin Western (Millipore). The polyclonal antibody against the tobacco Rubisco L/S complex was provided by F. Sato of Kyoto University. The polyclonal antibody against D1 and LHCP protein was obtained from Agrisera. LAS-4000 mini (Fuji Film) was used for detection.
To analyze BPG2 function with BR on chloroplast protein accumulation, we performed immunoblot analysis seedlings of wild type and bpg2 mutants in the light with and without Brz (FIG. 10). In wild type, Rubisco LSU protein from Brz-treated seedlings increased about 1.4-fold and D1 protein increased about 1.3-fold compared to that of no-Brz seedlings (FIG. 10a, b). […] The effect of BPG2 deficiency on LHCP protein was much smaller than on D1 and Rubisco LSU.

wild-type Arabidopsis = assay: RT-PCR analysis of gene expression in dark-grown plants with Brz; format: in vivo, Arabidopsis thaliana; conditions: wild type grown in the dark 7 days with Brz 0.1, 1, 3 μM
From the text: FIG. 6. Inducible expression of BPG2 by light and Brz. (a) RT-PCR analysis of BPG2 gene expression in different organs: root (R), stem (S), rosette leaf blade (LB), rosette leaf petiole (LP), cauline leaves (CL), and flowers (F) of wild-type Arabidopsis. ACT2 served as an internal control. (b) RT-PCR analysis of expression of BPG2, CAB, and rbcS after exposure to light. Total RNAs were extracted from the wild type germinated in the dark for 7 days and exposed to light for 0 (lane 1, 0), 0.5 (lane 2, 0.5), 1 (lane 3, 1), 2 (lane 4, 2), or 4 h (lane 5, 4), and from 7-day-old wild type under long-day conditions (16 h light and 8 h dark; lane 6, L). (c) RT-PCR analysis of expression of BPG2, CAB, rbcS, and DWF4 on Brz. Total RNAs were extracted from wild type germinated in the dark for 7 days with Brz.
Total RNA was extracted from wild type and bpg2 mutants with the RNeasy Plant mini kit (Qiagen). First strand cDNA was synthesized with Super Script III first-strand cDNA synthesis for RT (Invitrogen) and used as template. RT-PCR was performed with Ex Taq (Takara Bio). […]

[3] = tested on: Arabidopsis bpg2 mutants and wild type; assay: Northern blot analysis of photosynthesis gene expression; format: in vivo, Arabidopsis thaliana; conditions: bpg2 mutants versus wild type, dark grown 5-day seedlings, 1 μM Brz
Experimental: FIG. 7. Chloroplast gene expression in bpg2 mutants. Total RNA was extracted from light grown 4-day-old seedlings (a), 3-week-old rosette leaves (b) and dark grown 5-day-seedling (c) of wild type (WT), bpg2-1, and bpg2-2. Northern blot analysis was carried out using probes for psbA and rbcL, encoded in the chloroplast, and rbcS, CAB, and 18S rRNA, encoded in the nucleus. (c) Seedlings were germinated with 0 or 1 μM Brz in the dark.
Total RNA was extracted from light grown 4-day-old seedlings, 3-week-old rosette leaves and dark grown 5-day-old seedlings of wild type, bpg2-1 and bpg2-2 with the RNeasy Plant Mini kit (Qiagen). Total RNA (3 μg) was separated in 1.2% agarose/0.66 M formaldehyde gels and blotted on Hybond N^+ (Amersham). After transfer, the ECL Direct Nucleic Acid Labeling and Detection system (GE Healthcare) was used for hybridization, and LAS-4000 mini (Fuji Film) was used for analysis of chemical fluorescence.

Arabidopsis bpg2-1 = assay: Hypocotyl phenotype when grown with Brz in the dark; format: in vivo, Arabidopsis thaliana; conditions: bpg2-1 grown with Brz in the dark (data not shown)
[4] = molecular target: cytochrome P450 steroid C-22 hydroxylase encoded by the DWF4 gene (Arabidopsis thaliana, UniProt O64989); conditions: Asami et al., 2000, 2001; cited from earlier work
Sequence of cytochrome P450 steroid C-22 hydroxylase encoded by the DWF4 gene (O64989 whole entry): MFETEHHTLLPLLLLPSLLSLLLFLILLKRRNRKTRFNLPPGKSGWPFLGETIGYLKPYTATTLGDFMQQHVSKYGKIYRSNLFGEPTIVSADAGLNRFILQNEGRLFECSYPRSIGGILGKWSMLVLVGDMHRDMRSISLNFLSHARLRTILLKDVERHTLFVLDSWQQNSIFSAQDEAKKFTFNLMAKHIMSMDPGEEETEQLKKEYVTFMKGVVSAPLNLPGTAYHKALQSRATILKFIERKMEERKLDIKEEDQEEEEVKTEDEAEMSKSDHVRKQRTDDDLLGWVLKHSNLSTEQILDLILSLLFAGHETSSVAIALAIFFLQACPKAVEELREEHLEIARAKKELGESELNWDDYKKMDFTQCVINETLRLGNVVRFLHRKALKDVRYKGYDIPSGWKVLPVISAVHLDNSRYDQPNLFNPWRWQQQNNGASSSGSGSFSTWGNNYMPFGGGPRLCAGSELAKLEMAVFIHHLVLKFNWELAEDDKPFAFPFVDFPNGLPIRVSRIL

[5] = wild type, germinated in the light for 3 days

For `CC(O)(c1ccccc1)C(Cc1ccc(Cl)cc1)n1cncn1` (centres unmarked) [Brz, brassinazole], the “chlorophyll levels following Brz treatment” value ([1]; bpg2:35S-BPG2 transformants, Brz 1 μM) was “increase in chlorophyll levels”, the “endogenous chlorophyll a and b levels” value ([1]; wild-type seedlings, Brz 0.1 and 1 μM, light) was “increased” and the “D1 protein of Brz-treated seedlings” value ([2]; bpg2 mutants, light 3 days) was “the same as in no-Brz seedlings”. The “Rubisco LSU protein of Brz-treated seedlings” value ([2]; bpg2 mutants, light 3 days) was “the same as in no-Brz seedlings”, the “induction of Rubisco LSU protein and D1 protein by Brz” value ([2]; clpB3 and clpC1 mutants, light 3 days) was “no induction” and the “D1 protein, Brz-treated compared to no-Brz seedlings” value [2, 5] was “about 1.3 fold”. For the same compound, the “Rubisco LSU protein, Brz-treated compared to no-Brz seedlings” value [2, 5] was “about 1.4 fold”, the “Rubisco SSU protein” value ([2]; wild type, light 3 days) was “increased” and the “nuclear encoded-LHCP protein” value ([2]; wild type, light 3 days) was “increased”. The BPG2 gene expression (wild-type Arabidopsis) was “actually increased”, the “expression of CAB and rbcS” value (wild-type Arabidopsis) was “increased” and the “expression of psbA, rbcL, CAB and rbcS” value [3] was “to the same degree in bpg2 mutants as in wild type”. The hypocotyl phenotype (Arabidopsis bpg2-1) was “same short hypocotyl as the wild type plants” and the “binding to cytochrome P450 steroid C-22 hydroxylase (DWF4)” value [4] was “binds directly”.
